US20110190389A1, “OXYLIPINS FROM LONG CHAIN POLYUNSATURATED FATTY ACIDS AND METHODS OF MAKING AND USING THE SAME” (priority 2007, published 2011)

Legend:
[1] = system: inflammatory cytokine production; assay: Consumption of LCPUFA oils: inflammatory cytokine and eicosanoid production; type: in vivo; conditions: consumption of the oil; DHA dose approximately three times higher in DHA-alone oil
hind paw edema = assay: Carrageenan-induced rat paw edema after feeding LCPUFA diets; type: in vivo, Sprague Dawley rats; conditions: diet 4 weeks, 1% carrageenan, 3 hours post-injection, Day 28
Description: Adult, male, Sprague Dawley rats (n=10/treatment group) were fed modified AlN-76 diets formulated to include 1.2% DHA, 1.2% DHA+0.44% DPAn-6, or 1.2% DHA+0.46% arachidonic acid (ARA) for 4 weeks. Carrageenan (1%) was used to induce hind paw edema on Day 14 (left paw) and Day 28 (right paw) of feeding. Edema was measured plethysmographically using water displacement 3 hours post-injection. Similar results were obtained on day 14. *p≦0.05.

Soybean 15-lipoxygenase = biological target: T1, Soybean 15-lipoxygenase (Glycine max, UniProt P08170); assay: 15-lipoxygenase reaction with fatty acid substrates (conversion to conjugated diene); type: biochemical; conditions: 100 μM fatty acid, 4 μg/ml enzyme, 0.05 M sodium borate pH 9.0, 0° C, absorbance 238 nm
T1 construct: purchased Sigma-Aldrich
T1 sequence (P08170 1-839): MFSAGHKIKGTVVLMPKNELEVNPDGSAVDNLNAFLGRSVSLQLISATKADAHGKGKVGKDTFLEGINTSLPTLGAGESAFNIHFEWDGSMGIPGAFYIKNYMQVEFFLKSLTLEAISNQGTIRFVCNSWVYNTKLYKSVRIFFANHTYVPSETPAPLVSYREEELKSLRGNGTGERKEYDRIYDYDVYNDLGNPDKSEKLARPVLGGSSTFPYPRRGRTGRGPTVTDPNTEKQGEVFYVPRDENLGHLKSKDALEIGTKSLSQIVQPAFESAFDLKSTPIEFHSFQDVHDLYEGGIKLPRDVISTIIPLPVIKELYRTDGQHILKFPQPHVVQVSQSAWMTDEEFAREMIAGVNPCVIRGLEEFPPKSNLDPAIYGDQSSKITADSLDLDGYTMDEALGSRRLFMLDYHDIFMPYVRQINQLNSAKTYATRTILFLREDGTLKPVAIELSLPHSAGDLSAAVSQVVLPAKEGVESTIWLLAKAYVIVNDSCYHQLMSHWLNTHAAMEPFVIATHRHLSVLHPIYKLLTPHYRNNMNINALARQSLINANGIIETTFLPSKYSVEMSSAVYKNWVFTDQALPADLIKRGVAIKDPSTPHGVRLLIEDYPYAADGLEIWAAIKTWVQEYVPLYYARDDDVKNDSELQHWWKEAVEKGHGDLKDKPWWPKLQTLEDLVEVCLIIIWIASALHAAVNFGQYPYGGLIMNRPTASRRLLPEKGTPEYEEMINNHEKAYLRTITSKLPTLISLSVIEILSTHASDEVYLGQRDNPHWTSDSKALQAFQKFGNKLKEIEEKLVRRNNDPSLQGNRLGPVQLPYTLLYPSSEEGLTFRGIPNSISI
Description: Soybean 15-lipoxygenase (Sigma-Aldrich, St. Louis, Mo.) at a final concentration of 4 μg/ml was mixed into 100 μM solutions of DHA, DPAn-6, or DPAn-3 (NuChek Prep, Elysian, Minn.) in 0.05 M sodium borate buffer, pH 9.0, and the reaction mixtures were incubated at 0° C. Appearance of the mono-hydroxy conjugated diene derivatives of the fatty acids was monitored through absorbance at 238 nm. Conjugated diene products were quantified using an extinction coefficient of 28,000 M^−1 cm^−1 (Shimizu et al; Methods in Enzymology, 1990 Vol 187, 296-306). As shown in Example. 1, 100% of the DPAn-6 was efficiently converted to its conjugated diene derivative under these conditions, whereas about 85% of DPAn-3 and 50% of DHA were converted to their respective conjugated diene (mono-hydroxy) derivative by the 15-lipoxygenase. No appreciable accumulation of the dihydroxy derivatives occurred under these reaction conditions.

[2] = system: total cell migration into air pouch exudates; assay: Mouse dorsal air pouch model: total cell migration into exudates; type: in vivo, C57/B16 mice; conditions: 100 ng docosanoid intra-pouch; for total number of cells in the pouch: 100 ng TNFα, 4 hours
Excerpt: (§1) Pure 17R-hydroxy DHA (17R-HDHA) was purchased from Caymen Chemicals (Ann Arbor, Mich.). Docosanoids 17-hydroxy-DPAn-6 (17-HDPAn-6) and 10,17-dihydroxyDPAn-6 (10,17-HDPAn-6) were synthesized biogenically from DPAn-6 (NuChek Prep, Elysian, Minn.) using soybean 15-lipoxygenase (Sigma-Aldrich) and purified by HPLC as described in Example 2. Organic solvents were evaporated and the compounds were re-dissolved in phosphate buffered saline (PBS), filter sterilized and concentrations were adjusted to 1000 ng/ml using molar extinction coefficients of 28,000 and 40,000 M^−1 cm^−1 for the mono- and dihydroxy docosanoids, respectively. Female C57/B16 mice (n=10 mice per group) were injected with sterile air subcutaneously in the back to initiate dorsal air pouches. Six days later, 0.9 ml sterile PBS followed by 100 ng docosanoid in 0.1 ml PBS or PBS alone were administered by intra-pouch injection. This injection was followed within 5 min by intra-pouch injection of 100 ng of mouse recombinant TNFα (Peprotech, Inc, NJ, USA) in 0.1 ml PBS. Control animals received no TNFα. As a positive control, 2 mg/kg indomethacin (Calbiochem, San Diego, Calif.) was administered intraperitoneally 30 min prior to administration of TNFα. Four hours after TNFα administration, air pouch exudates were removed and cells were stained with Turk's solution and counted. Exudates were frozen for later cytokine analyses using commercial ELISA kits. Bars represent group (n=10) means (±stdev). Groups were compared using Student's t test, with p values indicated.

IL-1β = assay: Mouse dorsal air pouch model: IL-1β in exudates; type: in vivo, C57/B16 mice; conditions: 100 ng docosanoid intra-pouch; for secretion of IL-1β in air pouch exudates: 100 ng TNFα, 4 hours
Excerpt: as §1

[3] = system: macrophage chemotactic protein-1 (MCP-1); assay: Mouse dorsal air pouch model: MCP-1 in exudates; type: in vivo, C57/B16 mice; conditions: 100 ng docosanoid intra-pouch; for secretion of MCP-1 in air pouch exudates: 100 ng TNFα, 4 hours; for inhibition of MCP-1 secretion versus indomethacin: indomethacin 2 mg/kg i.p.
Excerpt: as §1

human T lymphocytes = assay: TNFα secretion by human T lymphocytes stimulated with anti-CD3/anti-CD28 antibodies; type: cell-based; conditions: 6 hrs pretreatment, 41 hrs on anti-CD3/anti-CD28; difference p=0.037 at 10 nM
Description: FIG. 22A: Effect of Docosanoids on TNFα Secretion by Human T Lymphocytes. The assay was performed essentially as described in Ariel et al, 2005. Briefly, human peripheral blood mononuclear cells were isolated from venous blood by Ficoll-Paque™ Plus (Amersham biosciences) gradient. T lymphocytes were isolated using a human T cell enrichment column (R&D Systems) per manufacturer's instructions. Purified T cells were treated with 10,17-dihydroxy DPAn-6 or 10,17-dihydroxy DHA or vehicle (0.05% ethanol) in RPMI-1640 media containing 10% heat inactivated fetal bovine serum for 6 hrs at 37° C. Lymphocytes (200,000 cells in 200 μl media per well) were then transferred to 96-well plates coated with both anti-CD3 antibody and anti-CD28 antibody (100 μl of 2 μg/ml of each antibody overnight to coat wells) and incubated for 41 hrs. TNFα concentrations were determined in cell supernatants by ELISA (R&D Systems). Group means±stdev (n=4) were compared by Student's t test. *p<0.05 and **p<0.01 compared to control; # indicates statistical difference (p=0.037) between the groups treated with 10,17-dihydroxy DPAn-6 and 10,17-dihydroxy DHA at the 10 nM concentrations.

| Compound | total number of cells in the pouch [2] | secretion of IL-1β in air pouch exudates (IL-1β) | secretion of MCP-1 in air pouch exudates [3] | inhibition of MCP-1 secretion versus indomethacin [3] | further results |
| --- | --- | --- | --- | --- | --- |
| CC/C=C\C/C=C\C/C=C\C/C=C\C/C=C\C/C=C\CCC(=O)O [DHA, docosahexaenoic acid, reference compound] | – | – | – | – | reduction in inflammatory cytokine production [1]: 13-29% |
| CCCCC/C=C\C/C=C\C/C=C\C/C=C\CCCC(=O)O [ARA, arachidonic acid] | – | – | – | – | edema volume (hind paw edema): reversed the anti-inflammatory activity of DHA |
| CC/C=C\C/C=C\C/C=C\C/C=C\C/C=C\CCCCCC(=O)O [DPAn-3, docosapentaenoic acid (C22:5n-3)] | – | – | – | – | converted to conjugated diene (mono-hydroxy) derivative by the 15-lipoxygenase (Soybean 15-lipoxygenase): about 85% |
| 10,17-dihydroxy DPAn-6 | significant reductions | significant reductions | significant reductions | larger inhibition of MCP-1 secretion than indomethacin | reduction of IL-1β versus comparators (IL-1β; indomethacin 2 mg/kg i.p.): significantly larger than with that produced by either the DHA oxylipin derivative or indomethacin; reducing TNFα secretion by T lymphocytes, versus DHA analog (human T lymphocytes): more potent than the DHA analog |
| CCCCCC(O)/C=C/C=C\C/C=C\C/C=C\C/C=C\CCC(=O)O (centres unmarked) [17-hydroxy DPAn-6] | significant reductions | significant reductions | significant reductions | larger inhibition of MCP-1 secretion than indomethacin | potency in reducing cell infiltration versus comparators ([2]; indomethacin 2 mg/kg i.p.): more potent than both 17R-hydroxy DHA and indomethacin |
